Results as given in US20240382483A1, “HETEROCYCLIC EGFR INHIBITORS FOR USE IN THE TREATMENT OF CANCER” (Blueprint Medicines Corporation, priority 2021, published 2024).

How the values were obtained:
[1] = target: T1, intracellular phosphorylation of EGFR in NCI-H1975 cell line that harbors the EGFR L858R T790M mutations (Homo sapiens, UniProt P00533, L858R/T790M); test: NCI-H1975 pEGFR AlphaLISA assay; assay type: cell-based; settings: NCI-H1975 cells (EGFR L858R T790M), p-EGFR (Tyr1068), 4-5 hours incubation; read-out: Ext pEGFR H1975 GMean IC50 (nM) Protocol: @Pharmaron AlphaLISA (Num)
T1 construct: NCI-H1975 cell line that harbors the EGFR L858R T790M mutations (ATCC, CRL-5908); host or cells: NCI-H1975
T1 sequence (P00533 25-1210 T790M/L858R): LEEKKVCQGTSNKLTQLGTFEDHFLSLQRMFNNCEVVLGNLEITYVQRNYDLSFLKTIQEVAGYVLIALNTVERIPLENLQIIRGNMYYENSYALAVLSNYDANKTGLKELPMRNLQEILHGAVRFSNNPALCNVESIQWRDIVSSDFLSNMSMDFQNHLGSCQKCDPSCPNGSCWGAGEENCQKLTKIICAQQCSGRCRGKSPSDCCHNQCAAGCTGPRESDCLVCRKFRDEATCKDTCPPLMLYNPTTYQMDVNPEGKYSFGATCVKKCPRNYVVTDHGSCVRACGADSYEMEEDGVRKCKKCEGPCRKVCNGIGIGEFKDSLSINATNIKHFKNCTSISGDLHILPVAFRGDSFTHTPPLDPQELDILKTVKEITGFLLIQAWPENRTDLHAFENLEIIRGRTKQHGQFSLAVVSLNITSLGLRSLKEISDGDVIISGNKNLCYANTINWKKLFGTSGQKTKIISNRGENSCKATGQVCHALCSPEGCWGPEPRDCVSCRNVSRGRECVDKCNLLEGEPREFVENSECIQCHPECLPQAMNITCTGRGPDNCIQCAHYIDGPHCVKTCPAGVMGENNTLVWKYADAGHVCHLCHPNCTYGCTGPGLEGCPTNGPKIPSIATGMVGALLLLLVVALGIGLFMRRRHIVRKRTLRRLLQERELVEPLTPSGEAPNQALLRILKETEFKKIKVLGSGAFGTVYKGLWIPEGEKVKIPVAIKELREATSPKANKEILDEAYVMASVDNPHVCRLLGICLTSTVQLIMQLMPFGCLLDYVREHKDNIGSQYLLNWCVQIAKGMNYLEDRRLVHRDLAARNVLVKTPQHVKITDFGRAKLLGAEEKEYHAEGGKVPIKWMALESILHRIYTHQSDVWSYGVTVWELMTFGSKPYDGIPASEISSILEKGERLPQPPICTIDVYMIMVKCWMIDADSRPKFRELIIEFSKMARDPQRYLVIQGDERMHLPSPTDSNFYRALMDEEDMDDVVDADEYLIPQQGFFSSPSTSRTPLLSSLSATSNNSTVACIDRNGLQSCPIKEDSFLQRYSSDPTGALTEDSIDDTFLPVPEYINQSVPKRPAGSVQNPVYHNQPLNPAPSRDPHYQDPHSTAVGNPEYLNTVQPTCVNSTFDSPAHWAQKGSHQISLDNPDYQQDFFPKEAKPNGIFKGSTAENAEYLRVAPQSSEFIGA
Protocol: On the next day, the test compounds and DMSO control were added into H1975 cell plate followed by incubation at 37C/5% CO2 for 4-5 hours. […] Then 5 μL of a donor bead mix was added to each well followed by overnight incubation at room temperature in dark. On the next day, the plate was read at a compatible plate reader to obtain pEGFR signal. Percent of pEGFR inhibition was plotted against log concentration of compounds to generate IC50 values.

[2] = target: T2, EGFR (L858R T790M C797S) (Homo sapiens, UniProt P00533, C797S/L858R/T790M); test: Biochemical EGFR inhibition assay (Caliper mobility shift), EGFR LRTMCS; settings: LRTMCS (PH) IC50 (nM) @ 1 mM ATP (Num), EGFR LRTMCS mutant
T2 construct: purchased SignalChem E10-122VG
T2 sequence (P00533 25-1210 T790M/C797S/L858R): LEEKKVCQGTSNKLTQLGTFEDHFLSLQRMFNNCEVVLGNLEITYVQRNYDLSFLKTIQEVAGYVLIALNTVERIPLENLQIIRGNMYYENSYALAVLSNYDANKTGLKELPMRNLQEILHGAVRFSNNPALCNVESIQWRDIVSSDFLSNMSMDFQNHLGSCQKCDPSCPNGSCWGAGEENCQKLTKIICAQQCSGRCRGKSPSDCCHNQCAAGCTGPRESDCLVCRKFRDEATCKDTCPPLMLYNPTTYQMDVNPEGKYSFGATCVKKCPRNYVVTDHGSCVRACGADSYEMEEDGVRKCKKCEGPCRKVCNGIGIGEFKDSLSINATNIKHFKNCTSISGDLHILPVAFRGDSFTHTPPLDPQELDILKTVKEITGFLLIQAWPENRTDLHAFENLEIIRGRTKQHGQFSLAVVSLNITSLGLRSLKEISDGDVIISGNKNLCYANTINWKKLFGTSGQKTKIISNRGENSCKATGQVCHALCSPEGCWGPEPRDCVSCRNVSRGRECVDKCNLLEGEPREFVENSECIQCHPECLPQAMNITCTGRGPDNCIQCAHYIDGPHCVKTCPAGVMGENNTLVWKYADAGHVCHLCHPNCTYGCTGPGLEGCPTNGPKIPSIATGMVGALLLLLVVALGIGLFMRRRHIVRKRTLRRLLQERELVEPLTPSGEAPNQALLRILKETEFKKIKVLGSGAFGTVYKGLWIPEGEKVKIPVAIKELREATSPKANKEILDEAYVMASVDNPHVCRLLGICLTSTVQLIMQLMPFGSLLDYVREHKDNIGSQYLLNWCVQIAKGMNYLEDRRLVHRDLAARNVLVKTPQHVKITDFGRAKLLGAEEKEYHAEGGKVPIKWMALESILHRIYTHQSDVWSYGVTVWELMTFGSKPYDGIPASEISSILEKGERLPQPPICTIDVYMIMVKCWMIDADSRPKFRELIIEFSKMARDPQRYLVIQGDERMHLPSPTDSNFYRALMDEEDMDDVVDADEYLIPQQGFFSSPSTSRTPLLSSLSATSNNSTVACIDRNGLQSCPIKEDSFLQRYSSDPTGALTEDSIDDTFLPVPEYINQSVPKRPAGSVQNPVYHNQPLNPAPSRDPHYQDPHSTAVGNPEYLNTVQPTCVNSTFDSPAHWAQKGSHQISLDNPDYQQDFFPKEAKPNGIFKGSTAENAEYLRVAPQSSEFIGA
Method in brief: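 Kinase reactions at 25 °C run to 10–20% peptide phosphorylation, stopped with 35 mM EDTA. Phosphorylated product and substrate separated electrophoretically by mobility shift. Apparent IC50 from percent activity versus log compound concentration.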

| Compound | IC50 [1] | IC50 [2] |
| --- | --- | --- |
| CC(C)c1cnc(N2C[C@H](O)[C@H]2C)c2cnc(Nc3ccnc(N4C[C@@H](F)[C@@H](O)[C@](C)(F)C4)n3)cc12 (single isomer, unassigned) [Example 136, (3R,4R,5R)-3,5-difluoro-1-(4-((8-((2R,3S)-3-hydroxy-2-methylazetidin-1-yl)-5-isopropyl-2,7-naphthyridin-3-yl)amino)pyrimidin-2-yl)-3-methylpiperidin-4-ol or (3S,4S,5S)-3,5-difluoro-1-(4-((8-((2R,3S)-3-hydroxy-2-methylazetidin-1-yl)-5-isopropyl-2,7-naphthyridin-3-yl)amino)pyrimidin-2-yl)-3-methylpiperidin-4-ol] | 20 to 30 nM | < 15 nM |
| CC(C)c1cnc(N2CC[C@@H](S(C)(=O)=O)C2)c2cnc(Nc3ccnc(N4CC[C@@H](O)[C@@](C)(F)C4)n3)cc12 [Example 74, (3S,4R)-3-fluoro-1-(4-((5-isopropyl-8-((R)-3-(methylsulfonyl)pyrrolidin-1-yl)-2,7-naphthyridin-3-yl)amino)pyrimidin-2-yl)-3-methylpiperidin-4-ol] | < 10 nM | < 15 nM |
| CC(C)c1cnc(N2CCC3(C2)CC3(F)F)c2cnc(Nc3ccnc(N4CC[C@@H](O)[C@@](C)(F)C4)n3)cc12 (stereo partly drawn) [Example 63, (3S,4R)-1-(4-((8-(1,1-difluoro-5-azaspiro[2.4]heptan-5-yl)-5-isopropyl-2,7-naphthyridin-3-yl)amino)pyrimidin-2-yl)-3-fluoro-3-methylpiperidin-4-ol] | 20 to 30 nM | 15 to 20 nM |
| CC(C)c1cnc(N2CC3(CCS3(=O)=O)C2)c2cnc(Nc3ccnc(N4CC[C@@](C)(O)[C@@H](F)C4)n3)cc12 (single isomer, unassigned) [Example 175, 6-(6-((2-((3S,4R)-3-fluoro-4-hydroxy-4-methylpiperidin-1-yl)pyrimidin-4-yl)amino)-4-isopropyl-2,7-naphthyridin-1-yl)-1-thia-6-azaspiro[3.3]heptane 1,1-dioxide or 6-(6-((2-((3R,4S)-3-fluoro-4-hydroxy-4-methylpiperidin-1-yl)pyrimidin-4-yl)amino)-4-isopropyl-2,7-naphthyridin-1-yl)-1-thia-6-azaspiro[3.3]heptane 1,1-dioxide] | > 50 nM | < 15 nM |
| C[C@@H]1CCN1c1ncc([C@@H]2CCOC2)c2cc(Nc3ccnc(N4CC[C@@H](O)[C@@H](F)C4)n3)ncc12 (single isomer, unassigned) [Example 162, (3S,4R)-3-fluoro-1-(4-((8-((R)-2-methylazetidin-1-yl)-5-((S)-tetrahydrofuran-3-yl)-2,7-naphthyridin-3-yl)amino)pyrimidin-2-yl)piperidin-4-ol or (3S,4R)-3-fluoro-1-(4-((8-((R)-2-methylazetidin-1-yl)-5-((R)-tetrahydrofuran-3-yl)-2,7-naphthyridin-3-yl)amino)pyrimidin-2-yl)piperidin-4-ol] | 30 to 50 nM | < 15 nM |
| C[C@H](CO)c1cnc(N2CC[C@H]2C)c2cnc(Nc3ccnc(N4C[C@@H](F)[C@@H](O)C(C)(C)C4)n3)cc12 (single isomer, unassigned) [Example 187] | > 50 nM | 30 to 100 nM |
| CO[C@@H]1CCN(c2nccc(Nc3cc4c(C(C)C)cnc(N5C[C@H](OCCO)[C@H]5C)c4cn3)n2)C[C@@H]1F [Example 148, 2-(((2R,3S)-1-(6-((2-((3S,4R)-3-fluoro-4-methoxypiperidin-1-yl)pyrimidin-4-yl)amino)-4-isopropyl-2,7-naphthyridin-1-yl)-2-methylazetidin-3-yl)oxy)ethan-1-ol] | < 10 nM | < 15 nM |
| CC(C)c1cnc(N2CCC23CN(C(C)C)C3)c2cnc(Nc3ccnc(N4CC[C@@H](O)[C@@](C)(F)C4)n3)cc12 [Example 193, (3S,4R)-3-fluoro-1-(4-((5-isopropyl-8-(6-isopropyl-1,6-diazaspiro[3.3]heptan-1-yl)-2,7-naphthyridin-3-yl)amino)pyrimidin-2-yl)-3-methylpiperidin-4-ol] | 20 to 30 nM | < 15 nM |
| CO[C@H]1CN(c2ncc([C@@H](C)CO)c3cc(Nc4ccnc(N5CC[C@@H](O)[C@@](C)(F)C5)n4)ncc23)[C@@H]1C (single isomer, unassigned) [Example 212, (3S,4R)-3-fluoro-1-(4-((5-((R)-1-hydroxypropan-2-yl)-8-((2R,3S)-3-methoxy-2-methylazetidin-1-yl)-2,7-naphthyridin-3-yl)amino)pyrimidin-2-yl)-3-methylpiperidin-4-ol or (3S,4R)-3-fluoro-1-(4-((5-((S)-1-hydroxypropan-2-yl)-8-((2R,3S)-3-methoxy-2-methylazetidin-1-yl)-2,7-naphthyridin-3-yl)amino)pyrimidin-2-yl)-3-methylpiperidin-4-ol] | 10 to 20 nM | < 15 nM |
| CC(C)c1cnc(-c2cnn(C)c2)c2cnc(Nc3ccnc(N4CC[C@@H](O)[C@@](C)(F)C4)n3)cc12 [Example 9, (3S,4R)-3-fluoro-1-(4-((5-isopropyl-8-(1-methyl-1H-pyrazol-4-yl)-2,7-naphthyridin-3-yl)amino)pyrimidin-2-yl)-3-methylpiperidin-4-ol] | 30 to 50 nM | < 15 nM |
| CC(C)c1cnc(N2CC3(CN(C)C(=O)O3)C2)c2cnc(Nc3ccnc(N4CC[C@@H](O)[C@@](C)(F)C4)n3)cc12 [Example 71, 2-(6-((2-((3S,4R)-3-fluoro-4-hydroxy-3-methylpiperidin-1-yl)pyrimidin-4-yl)amino)-4-isopropyl-2,7-naphthyridin-1-yl)-7-methyl-5-oxa-2,7-diazaspiro[3.4]octan-6-one] | 30 to 50 nM | 20 to 30 nM |
| CNC[C@@H]1CCN1c1ncc(C(C)C)c2cc(Nc3ccnc(N4CC[C@H](OC)[C@H](F)C4)n3)ncc12 [Example 164, N-(2-((3R,4S)-3-fluoro-4-methoxypiperidin-1-yl)pyrimidin-4-yl)-5-isopropyl-8-((S)-2-((methylamino)methyl)azetidin-1-yl)-2,7-naphthyridin-3-amine] | 30 to 50 nM | < 15 nM |
| CO[C@@H]1CCN(c2nccc(Nc3cc4c(C(C)C)cnc(N5CC6(CCS6(=O)=O)C5)c4cn3)n2)C[C@@H]1O (single isomer, unassigned) [Example 124, 6-(6-((2-((3S,4R)-3-hydroxy-4-methoxypiperidin-1-yl)pyrimidin-4-yl)amino)-4-isopropyl-2,7-naphthyridin-1-yl)-1-thia-6-azaspiro[3.3]heptane 1,1-dioxide or 6-(6-((2-((3R,4S)-3-hydroxy-4-methoxypiperidin-1-yl)pyrimidin-4-yl)amino)-4-isopropyl-2,7-naphthyridin-1-yl)-1-thia-6-azaspiro[3.3]heptane 1,1-dioxide] | 30 to 50 nM | < 15 nM |
| CC(C)c1ccc(C2CN(S(C)(=O)=O)C2)c2cnc(Nc3ccnc(N4CC[C@@H](O)[C@@](C)(F)C4)n3)cc12 [Example 3, (3S,4R)-3-fluoro-1-(4-((5-isopropyl-8-(1-(methylsulfonyl)azetidin-3-yl)isoquinolin-3-yl)amino)pyrimidin-2-yl)-3-methylpiperidin-4-ol] | 20 to 30 nM | < 15 nM |
